In patent publication US20230080054A1 (ILDONG PHARMACEUTICAL CO., LTD., priority 2021, published 2023) one finds inhibition data, which are given here for 31 compounds.

What is called inhibition is the relative decrease from the control value, in per cent.

The assay addresses T1, human ANO6 (Homo sapiens, UniProt Q4KMQ2).
T1 construct: expressed in transfected cells
T1 sequence (Q4KMQ2 1-931 isoform Q4KMQ2-2): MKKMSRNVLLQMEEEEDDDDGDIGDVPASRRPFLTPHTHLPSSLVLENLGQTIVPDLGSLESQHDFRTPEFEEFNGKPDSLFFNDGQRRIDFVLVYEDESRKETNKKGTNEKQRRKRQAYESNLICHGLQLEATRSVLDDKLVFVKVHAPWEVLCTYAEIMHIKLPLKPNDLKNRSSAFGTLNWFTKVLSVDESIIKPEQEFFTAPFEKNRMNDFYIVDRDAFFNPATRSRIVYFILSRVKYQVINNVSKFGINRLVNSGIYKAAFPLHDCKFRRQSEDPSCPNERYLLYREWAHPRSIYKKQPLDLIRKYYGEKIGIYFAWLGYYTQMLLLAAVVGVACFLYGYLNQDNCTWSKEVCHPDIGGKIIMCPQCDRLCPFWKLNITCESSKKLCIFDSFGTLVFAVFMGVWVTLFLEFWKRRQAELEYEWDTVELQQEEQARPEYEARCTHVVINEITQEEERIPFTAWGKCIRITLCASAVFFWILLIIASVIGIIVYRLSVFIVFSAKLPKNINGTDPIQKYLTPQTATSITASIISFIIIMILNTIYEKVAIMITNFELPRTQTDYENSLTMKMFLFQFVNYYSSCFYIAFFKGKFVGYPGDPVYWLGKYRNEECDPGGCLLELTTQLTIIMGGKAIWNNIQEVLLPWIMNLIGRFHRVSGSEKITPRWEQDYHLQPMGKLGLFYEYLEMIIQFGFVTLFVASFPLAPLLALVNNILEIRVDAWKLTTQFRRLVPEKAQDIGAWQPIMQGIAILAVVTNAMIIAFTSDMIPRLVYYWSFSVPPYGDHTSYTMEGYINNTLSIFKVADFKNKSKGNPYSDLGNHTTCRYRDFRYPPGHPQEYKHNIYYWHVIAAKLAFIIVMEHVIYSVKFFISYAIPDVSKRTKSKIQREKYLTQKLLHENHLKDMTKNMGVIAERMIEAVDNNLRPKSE
Nature of the assay: YFP quenching assay (ANO6 ion channel activity). In kind it is cell-based. Conditions: 10 μM ionomycin; for inhibition at 1 µM: test compound 1 μM, read-out: Inhibition Level 1 μM; for inhibition at 30 µM: test compound 30 μM, read-out: Inhibition Level 30 μM. An excerpt:
Example 3: YFP Quenching Assay
1. Materials and Instruments
Ionomycin (Alomonelab cat. #I-700), FLUOstar Omega microplate reader (BMG Labtech, Ortenberg, Germany), and MARS Data Analysis Software (BMG Labtech)
Fisher rat thyroid (FRT) cells stably expressing human ANO6 (GenBank accession no. NP_001191732.1, provided by J. H. Nam, Dongguk University College of Medicine, Korea) and halide sensor mutant YFP-H148Q/I152L/F46L) were constructed and grown in Dulbecco's modified Eagle's medium Nutrient Mixture F-12 (DMEM/F-12) supplemented 10% FBS, 100 units/mL penicillin, 500 μg/mL hygromycin B and 100 μg/mL neomycin.
Fisher rat thyroid (FRT) cells stably expressing human ANO6 and halide sensor mutant YFP (H148Q/I152L/F46L) were seeded in black walled 96 well plates and incubated in a 37° C., 5% CO2 incubator to reach about 100% cell confluency. Then, each well of the 96 well plates were washed for several times with phosphate buffered saline (PBS), and 50 μL of PBS was added to each well. Test compounds (100× in DMSO) were added to each well to be 1% v/v DMSO. After incubation for 10 minutes in 40° C., the 96 well plates were transferred to a plate reader, and YFP fluorescence changed by SCN-introduced into cells through activated ANO6 were measured by the following steps.
(1) YFP fluorescence signals were recorded in every 0.4 seconds.
(2) Basal YFP fluorescence signals were recorded for 1 second.
(3) 140 mM SCN-(50 μL) containing 10 μM ionomycin was injected to each well, and YFP fluorescence signals were recorded.
The inhibitory activity (%) of each of the test compounds was obtained by the following steps.
(1) Background signals were subtracted from recording values, and the resulting values were converted to relative percentages. The values at 0 second were set to be 100%.
(2) Differences between the values at 3.6 seconds and those of at 7.6 seconds were calculated.
(3) In each row of 96 well plate, the inhibitory activity of each of the test compounds was calculated as percentages. The inhibitory activity of a negative control group to which neither compounds nor ionomycin were treated was set to be 100%, and the inhibitory activity of a positive control group to which ionomycin was treated and compounds were not treated was set to be 0%.
(4) The assay was performed in duplicate or triplicate, and the results were averaged.

With `COc1ccc(CCNC(=O)c2cccc(Nc3ncc(-c4ccccc4)cn3)c2)cc1` [Compound 83, N-[2-(4-methoxyphenyl)ethyl]-3-[(5-phenylpyrimidin-2-yl)amino]benzamide], the inhibition at 1 µM lay in the range of 30 to 60%.

`Cc1ccc(CNC(=O)c2cccc(Nc3ncc(-c4ccc5c(c4)OCO5)cn3)c2)o1` [Compound 103, 3-{[5-(2H-1,3-benzodioxol-5-yl)pyrimidin-2-yl]amino}-N-[(5-methylfuran-2-yl)methyl]benzamide]: the inhibition at 1 µM is < 30%.

Take `Cc1ccc(CNC(=O)c2cccc(Nc3ccc(C4CCCO4)nn3)c2)o1` (centres unmarked) [Compound 86, N-[(5-methylfuran-2-yl)methyl]-3-{[6-(oxolan-2-yl)pyridazin-3-yl]amino}benzamide]: the inhibition at 1 µM was < 30%.

`COc1ccc(CNC(=O)c2cccc(Nc3ccc(-c4ccccc4)nn3)c2)c(OC)c1` [Compound A61]: the inhibition at 1 µM is 30 to 60% and the inhibition at 30 µM is ≥ 60%. In the case of `CC(C)(C)NC(=O)c1cccc(Nc2ccc(-c3ccccc3)nn2)c1` [Compound 65, N-tert-butyl-3-[(6-phenylpyridazin-3-yl)amino]benzamide], the inhibition at 1 µM was in the range of 30 to 60%. For the compound `COc1cccc(C(C)NC(=O)c2cccc(Nc3ccc(-c4ccccc4)nn3)c2)c1` (centres unmarked) [Compound A79], the inhibition at 1 µM is 30 to 60% and the inhibition at 30 µM was ≥ 60%. On the same counts, the results for `COc1ccc(OC)c(CNC(=O)c2cccc(Nc3ccc(-c4ccccc4)nn3)c2)c1` [Compound A60] are 30 to 60% and ≥ 60%. Turning to `Cc1ccc(CNC(=O)c2cccc(Nc3ncc(-c4cccc(C(F)(F)F)c4)cn3)c2)o1` [Compound 99, N-[(5-methylfuran-2-yl)methyl]-3-({5-[3-(trifluoromethyl)phenyl]pyrimidin-2-yl}amino)benzamide], the inhibition at 1 µM is 30 to 60%.

Regarding `CCN(CC)CCCNC(=O)c1cccc(Nc2ccc(-c3ccccc3)nn2)c1` [Compound A59], the inhibition at 1 µM is < 30% and the inhibition at 30 µM lay within 30 to 60%. With `O=C(NCCCc1ccccc1)c1cccc(Nc2ncc(-c3ccccc3)cn2)c1` [Compound 55, N-(3-phenylpropyl)-3-[(5-phenylpyrimidin-2-yl)amino]benzamide], the inhibition at 1 µM is ≥ 60%. Still for that read-out and setting: to `O=C(NCCc1ccccc1)c1cnc(Nc2ccc(-c3ccccc3)nn2)s1` [Compound 113, N-(2-phenylethyl)-2-[(6-phenylpyridazin-3-yl)amino]-1,3-thiazole-5-carboxamide] belongs < 30%. For `Cc1ccc(CNC(=O)c2cccc(Nc3cccnn3)c2)o1` [Compound 5, N-[(5-methylfuran-2-yl)methyl]-3-[(pyridazin-3-yl)amino]benzamide], the inhibition at 30 µM was 30 to 60%. On to `NC(=O)c1cccc(Nc2ccc(-c3ccccc3)nn2)c1` [Compound 17, 3-[(6-phenylpyridazin-3-yl)amino]benzamide], for which the inhibition at 30 µM was 30 to 60%. Regarding `O=C(NCCc1ccccc1)c1cccc(Nc2ncc(-c3cccc(F)c3)cn2)c1` [Compound A88], the inhibition at 1 µM lay in the range of 30 to 60%.

Take `Cc1ccc(CNC(=O)c2cccc(Nc3ccc(-c4ccc(Cl)c(Cl)c4)nn3)c2)o1` [Compound 16, 3-{[6-(3,4-dichlorophenyl)pyridazin-3-yl]amino}-N-[(5-methylfuran-2-yl)methyl]benzamide]: the inhibition at 30 µM was < 30%. Turning to `COc1cccc(CNC(=O)c2cccc(Nc3ccc(-c4ccc(F)cc4)nn3)c2)c1` [Compound A29], the inhibition at 1 µM was in the range of 30 to 60% and the inhibition at 30 µM is ≥ 60%. For the compound `Cc1ccc(CNC(=O)c2cccc(Nc3ncc(-c4ccccc4)nn3)c2)o1` [Compound 12, N-[(5-methylfuran-2-yl)methyl]-3-[(6-phenyl-1,2,4-triazin-3-yl)amino]benzamide], the inhibition at 1 µM fell in the range of 30 to 60% and the inhibition at 30 µM fell in the range of 30 to 60%. For the compound `Cc1ccc(CNC(=O)c2cccc(Nc3nnccc3C)c2)o1` [Compound 48, N-[(5-methylfuran-2-yl)methyl]-3-[(4-methylpyridazin-3-yl)amino]benzamide], the inhibition at 1 µM was < 30%. Still for that read-out and setting: then `CCOC(=O)c1ccc(-c2cnc(Nc3cccc(C(=O)NCc4ccc(C)o4)c3)nc2)cc1` [Compound 102, ethyl 4-{2-[(3-{[(5-methylfuran-2-yl)methyl]carbamoyl}phenyl)amino]pyrimidin-5-yl}benzoate], with < 30%. The same measure, in the same setting: then `Cc1ccc(CNC(=O)c2cccc(Nc3ncc(-c4cnc5ccccc5c4)cn3)c2)o1` [Compound 104, N-[(5-methylfuran-2-yl)methyl]-3-{[5-(quinolin-3-yl)pyrimidin-2-yl]amino}benzamide], with < 30%. `O=C(NCC1COC1)c1cccc(Nc2ccc(-c3ccccc3)nn2)c1` [Compound 35, N-[(oxetan-3-yl)methyl]-3-[(6-phenylpyridazin-3-yl)amino]benzamide]: the inhibition at 1 µM was < 30% and the inhibition at 30 µM is ≥ 60%. Consider `Cc1ccc(CNC(=O)c2cccc(Nc3ccc(C4CCN(C)CC4)nn3)c2)o1` [Compound 70, N-[(5-methylfuran-2-yl)methyl]-3-{[6-(1-methylpiperidin-4-yl)pyridazin-3-yl]amino}benzamide], for which the inhibition at 1 µM was < 30%. Same read-out and setting: then `Cc1ccc(CNC(=O)c2cccc(Nc3ncc(-c4ccc(C(=O)O)cc4)cn3)c2)o1` [Compound 109, 4-{2-[(3-{[(5-methylfuran-2-yl)methyl]carbamoyl}phenyl)amino]pyrimidin-5-yl}benzoic acid], with < 30%; and `CN(CCNC(=O)c1cccc(Nc2ccc(-c3ccccc3)nn2)c1)Cc1ccccc1` [Compound 124], with 30 to 60%. Regarding `Cc1ccc(CNC(=O)c2cccc(Nc3ccnc(-c4cccc(F)c4)n3)c2)o1` [Compound A21], the inhibition at 30 µM was < 30%. For the compound `Cc1ccc(Nc2cccc(C(=O)NCc3ccc(C)o3)c2)nn1` [Compound 47, N-[(5-methylfuran-2-yl)methyl]-3-[(6-methylpyridazin-3-yl)amino]benzamide], the inhibition at 1 µM was < 30%. The same measure, in the same setting: then `Cc1ccc(CNC(=O)c2cccc(Nc3ccc(C4CCNCC4)nn3)c2)o1` [Compound 71, N-[(5-methylfuran-2-yl)methyl]-3-{[6-(piperidin-4-yl)pyridazin-3-yl]amino}benzamide], with < 30%.

`COc1ccc(CNC(=O)c2cccc(Nc3ccc(-c4ccc(F)cc4)nn3)c2)c(OC)c1` [Compound A9]: the inhibition at 30 µM is 30 to 60%. Take `CCN(CC)c1ccc(CNC(=O)c2cccc(Nc3ncc(-c4cccc(F)c4)cn3)c2)cc1` [Compound A81]: the inhibition at 1 µM lay within 30 to 60%. Turning to `Cc1ccc(CNC(=O)c2cccc(Nc3ncc(-c4cc5ccccc5o4)cn3)c2)o1` [Compound 111, 3-{[5-(1-benzofuran-2-yl)pyrimidin-2-yl]amino}-N-[(5-methylfuran-2-yl)methyl]benzamide], the inhibition at 1 µM was < 30%. Take `O=C(NCC1CCCO1)c1cccc(Nc2ncc(-c3cccc(F)c3)cn2)c1` (centres unmarked) [Compound A83]: the inhibition at 1 µM lay in the range of 30 to 60%.
